Values joined by “and” are separate entries in the source; they are usually repeats but may differ in a detail not shown here. Equal entries are not always repeated. Where two headings read alike, the source gives them in different places.
Tests used:
Assay in all cases: Two-electrode voltage-clamp of ACh-induced currents in Xenopus oocytes
Assay type in all cases: cell-based
[1] = target: T1, (α4C254S)3(β2)2 nAChR (Homo sapiens, UniProt P17787+P43681, C254S); details: for R, potentiation ratio (PR): 10 µM ACh + 1 µM PAM vs 10 µM ACh alone
T1 construct: expressed in transfected cells; host or cells: Xenopus laevis oocytes injected with cRNA
Description: (§1) For amino acid substitutions within the α4 nAChR subunit, point mutations were introduced into pSP64ployA plasmid with cDNA encoding for human α4 nAChR subunit with mutagenic primer pairs using the Quick Change II Site-Directed Mutagenesis Kit (Agilent Technologies) then confirmed by DNA sequencing (GENEWIZ, LLC, South Plainfield, NJ). cRNA transcripts suitable for oocyte expression were prepared in vitro from linearized plasmids [α3 (BamH1), α4 (AseI), β2 (PvuII), β4 (XhoI)] using mMESSAGE mMACHINE high yield capped RNA transcription kits (Ambion) and purified on NucAway Spin column (Invitrogen). cRNA concentration was determined by spectroscopy (Concentration (ug/ul) = Abs260 * 40), aliquoted and stored at −80 °C until used.
(§2) Ovarian lobules were surgically harvested from oocytes-positive female Xenopus laevis (NASCO, Fort Atkinson, WI) according to an animal use protocol approved by the Texas A&M Health Sciences Center Institutional Animals Care and Use Committee. The Texas A&M Health Sciences Center Research Facility is registered as an animal research facility with the United States Department of Agriculture and is fully accredited by the American Association for Accreditation of Laboratory Animal Care (AAALAC). For oocytes defolliculation, ovarian lobes were treated with 3 mg/ml collagenase type 2 (Worthington Biomedical, Lakewood, NJ) in Ca + 2-free buffer (85 mM NaCl, 2.5 mM KCl, 1 mM MgCl2, 5 mM HEPES, pH 7.6). Collagenase treatment was allowed to proceed for 3 hours at room temperature with gentle shaking then oocytes were washed several times with buffer to remove collagenase then with ND96-gentamicine buffer. Healthy Stage V and VI oocytes were visually selected and maintained at 18 °C in modified ND96-gentamicine buffer (96 mM NaCl, 2 mM KCl, 1.8 mM CaCl2, 1 mM MgCl2, 5 mM HEPES, 50 µg/ml gentamicin, pH 7.6). Oocytes were injected with 50–100 ng of the desired nAChR subunits cRNA mix at ratios of 8α:1β or 1α:8β to express nAChRs with subunit stoichiometries of 3α:2β (low agonist sensitivity) or 2α:3β (high agonist sensitivity), respectively.
(§3) Oocytes were continuously perfused with recording buffer (100 mM NaCl, 2 mM KCl, 1 mM CaCl2, 0.8 mM MgCl2, 1 mM EGTA, 10 mM Hepes, pH 7.5) except during periods of drug applications.

[2] = target: (α4C259V)3(β2)2 nAChR (Homo sapiens, UniProt P43681, C259V); details: 10 µM ACh + 1 µM PAM vs 10 µM ACh alone
Description: as §1, §2, §3

[3] = target: (α4E308V)3(β2)2 nAChR (Homo sapiens, UniProt P43681, E308V); details: for R, potentiation ratio (PR): 10 µM ACh + 1 µM PAM vs 10 µM ACh alone
Description: as §1, §2, §3

[4] = target: T2, (α4F606Y)3(β2)2 nAChR (Homo sapiens, UniProt P17787+P43681, F606Y); details: for R, potentiation ratio (PR): 10 µM ACh + 1 µM PAM vs 10 µM ACh alone
T2 construct: expressed in transfected cells; host or cells: Xenopus laevis oocytes injected with cRNA
Description: as §1, §2, §3

[5] = target: (α4G613L)3(β2)2 nAChR (Homo sapiens, UniProt P43681, G613L); details: for R, potentiation ratio (PR): 10 µM ACh + 1 µM PAM vs 10 µM ACh alone
Description: as §1, §2, §3

[6] = target: T3, (α4H332Y)3(β2)2 nAChR (Homo sapiens, UniProt P17787+P43681, H332Y); details: for R, potentiation ratio (PR): 10 µM ACh + 1 µM PAM vs 10 µM ACh alone
T3 construct: expressed in transfected cells; host or cells: Xenopus laevis oocytes injected with cRNA
Description: as §1, §2, §3

[7] = target: T4, (α4I275V)3(β2)2 nAChR (Homo sapiens, UniProt P17787+P43681, I275V); details: for R, potentiation ratio (PR): 10 µM ACh + 1 µM PAM vs 10 µM ACh alone
T4 construct: expressed in transfected cells; host or cells: Xenopus laevis oocytes injected with cRNA
Description: as §1, §2, §3

[8] = target: T5, (α4I315A)3(β2)2 nAChR (Homo sapiens, UniProt P17787+P43681, I315A); details: for R, potentiation ratio (PR): 10 µM ACh + 1 µM PAM vs 10 µM ACh alone
T5 construct: expressed in transfected cells; host or cells: Xenopus laevis oocytes injected with cRNA
Description: as §1, §2, §3

[9] = target: T6, (α4I608L)3(β2)2 nAChR (Homo sapiens, UniProt P17787+P43681, I608L); details: for R, potentiation ratio (PR): 10 µM ACh + 1 µM PAM vs 10 µM ACh alone
T6 construct: expressed in transfected cells; host or cells: Xenopus laevis oocytes injected with cRNA
Description: as §1, §2, §3

[10] = target: (α4L256F)3(β2)2 nAChR (Homo sapiens, UniProt P43681, L256F); details: for R, potentiation ratio (PR): 10 µM ACh + 1 µM PAM vs 10 µM ACh alone
Description: as §1, §2, §3

[11] = target: T7, (α4L260M)3(β2)2 nAChR (Homo sapiens, UniProt P17787+P43681, L260M); details: for R, potentiation ratio (PR): 10 µM ACh + 1 µM PAM vs 10 µM ACh alone
T7 construct: expressed in transfected cells; host or cells: Xenopus laevis oocytes injected with cRNA
Description: as §1, §2, §3

[12] = target: T8, (α4L291V)3(β2)2 nAChR (Homo sapiens, UniProt P17787+P43681, L291V); details: for R, potentiation ratio (PR): 10 µM ACh + 1 µM PAM vs 10 µM ACh alone
T8 construct: expressed in transfected cells; host or cells: Xenopus laevis oocytes injected with cRNA
Description: as §1, §2, §3

[13] = target: T9, (α4L310F)3(β2)2 nAChR (Homo sapiens, UniProt P17787+P43681, L310F); details: for R, potentiation ratio (PR): 10 µM ACh + 1 µM PAM vs 10 µM ACh alone
T9 construct: expressed in transfected cells; host or cells: Xenopus laevis oocytes injected with cRNA
Description: as §1, §2, §3

[14] = target: (α4L311V)3(β2)2 nAChR (Homo sapiens, UniProt P43681, L311V); details: 10 µM ACh + 1 µM PAM vs 10 µM ACh alone
Description: as §1, §2, §3

[15] = target: T10, (α4M605I)3(β2)2 nAChR (Homo sapiens, UniProt P17787+P43681, M605I); details: for R, potentiation ratio (PR): 10 µM ACh + 1 µM PAM vs 10 µM ACh alone
T10 construct: expressed in transfected cells; host or cells: Xenopus laevis oocytes injected with cRNA
Description: as §1, §2, §3

[16] = target: T11, (α4M605V)3(β2)2 nAChR (Homo sapiens, UniProt P17787+P43681, M605V); details: for R, potentiation ratio (PR): 10 µM ACh + 1 µM PAM vs 10 µM ACh alone
T11 construct: expressed in transfected cells; host or cells: Xenopus laevis oocytes injected with cRNA
Description: as §1, §2, §3

[17] = target: T12, (α4S284G)3(β2)2 nAChR (Homo sapiens, UniProt P17787+P43681, S284G); details: for R, potentiation ratio (PR): 10 µM ACh + 1 µM PAM vs 10 µM ACh alone
T12 construct: expressed in transfected cells; host or cells: Xenopus laevis oocytes injected with cRNA
Description: as §1, §2, §3

[18] = ACh concentration-response curve, normalized to 1 mM ACh alone
[19] = read-out: dFBr potentiation EC50
[20] = read-out: inhibition of ACh-current response at 10 μM dFBr
[21] = read-out: LY2087101 potentiation EC50
[22] = normalized to peak current by 10 µM ACh alone, curve fit

T9 sequence (P43681 29-627 L310F limits assumed): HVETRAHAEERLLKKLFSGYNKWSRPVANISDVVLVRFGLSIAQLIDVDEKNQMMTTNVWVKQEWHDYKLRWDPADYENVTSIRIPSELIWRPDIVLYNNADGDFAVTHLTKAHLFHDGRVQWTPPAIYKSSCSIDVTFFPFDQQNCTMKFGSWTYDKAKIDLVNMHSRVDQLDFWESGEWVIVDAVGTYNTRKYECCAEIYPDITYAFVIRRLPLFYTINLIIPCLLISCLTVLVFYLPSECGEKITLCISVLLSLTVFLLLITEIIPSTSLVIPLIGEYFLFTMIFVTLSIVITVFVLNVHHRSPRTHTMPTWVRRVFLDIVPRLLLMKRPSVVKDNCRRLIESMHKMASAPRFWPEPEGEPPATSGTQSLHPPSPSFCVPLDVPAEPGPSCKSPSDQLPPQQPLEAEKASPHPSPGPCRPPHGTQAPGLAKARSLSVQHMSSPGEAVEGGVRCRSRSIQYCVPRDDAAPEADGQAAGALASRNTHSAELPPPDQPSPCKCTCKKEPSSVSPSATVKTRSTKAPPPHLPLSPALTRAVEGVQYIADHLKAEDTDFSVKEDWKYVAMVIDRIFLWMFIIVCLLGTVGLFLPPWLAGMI
T9 sequence (P17787 26-502): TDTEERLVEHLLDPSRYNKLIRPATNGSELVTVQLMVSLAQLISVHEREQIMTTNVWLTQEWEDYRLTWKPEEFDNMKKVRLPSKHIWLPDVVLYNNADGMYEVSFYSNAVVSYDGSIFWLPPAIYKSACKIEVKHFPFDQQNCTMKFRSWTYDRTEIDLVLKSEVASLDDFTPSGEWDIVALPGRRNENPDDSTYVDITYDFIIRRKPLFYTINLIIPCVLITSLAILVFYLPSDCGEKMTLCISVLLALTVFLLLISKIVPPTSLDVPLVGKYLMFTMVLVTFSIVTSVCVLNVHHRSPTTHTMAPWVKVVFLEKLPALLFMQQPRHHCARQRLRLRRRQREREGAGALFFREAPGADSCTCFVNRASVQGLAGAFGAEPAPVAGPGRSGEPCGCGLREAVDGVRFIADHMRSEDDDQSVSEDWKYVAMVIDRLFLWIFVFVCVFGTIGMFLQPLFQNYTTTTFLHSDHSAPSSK
T8 sequence (P43681 29-627 L291V limits assumed): as the sequence (P43681 29-627 L310F limits assumed) above, with L263V, F282L counted along it
T8 sequence (P17787 26-502): as the sequence (P17787 26-502) above
Sequence of (α4G613L)3(β2)2 nAChR (P43681 29-627 G613L limits assumed): as the sequence (P43681 29-627 L310F limits assumed) above, with F282L, G585L counted along it
Sequence of (α4G613L)3(β2)2 nAChR (P17787 26-502 partner): as the sequence (P17787 26-502) above
T2 sequence (P43681 29-627 F606Y limits assumed): as the sequence (P43681 29-627 L310F limits assumed) above, with F282L, F578Y counted along it
T2 sequence (P17787 26-502): as the sequence (P17787 26-502) above
T1 sequence (P43681 29-627 C254S limits assumed): as the sequence (P43681 29-627 L310F limits assumed) above, with C226S, F282L counted along it
T1 sequence (P17787 26-502): as the sequence (P17787 26-502) above
T5 sequence (P43681 29-627 I315A limits assumed): as the sequence (P43681 29-627 L310F limits assumed) above, with F282L, I287A counted along it
T5 sequence (P17787 26-502): as the sequence (P17787 26-502) above
T6 sequence (P43681 29-627 I608L limits assumed): as the sequence (P43681 29-627 L310F limits assumed) above, with F282L, I580L counted along it
T6 sequence (P17787 26-502): as the sequence (P17787 26-502) above
T12 sequence (P43681 29-627 S284G limits assumed): as the sequence (P43681 29-627 L310F limits assumed) above, with S256G, F282L counted along it
T12 sequence (P17787 26-502, stated change not applied): as the sequence (P17787 26-502) above
Sequence of (α4L256F)3(β2)2 nAChR (P43681 29-627 L256F limits assumed): as the sequence (P43681 29-627 L310F limits assumed) above, with L228F, F282L counted along it
Sequence of (α4L256F)3(β2)2 nAChR (P17787 26-502 partner): as the sequence (P17787 26-502) above
T3 sequence (P43681 29-627 H332Y limits assumed): as the sequence (P43681 29-627 L310F limits assumed) above, with F282L, H304Y counted along it
T3 sequence (P17787 26-502): as the sequence (P17787 26-502) above
T11 sequence (P43681 29-627 M605V limits assumed): as the sequence (P43681 29-627 L310F limits assumed) above, with F282L, M577V counted along it
T11 sequence (P17787 26-502): as the sequence (P17787 26-502) above
T10 sequence (P43681 29-627 M605I limits assumed): as the sequence (P43681 29-627 L310F limits assumed) above, with F282L, M577I counted along it
T10 sequence (P17787 26-502): as the sequence (P17787 26-502) above
Sequence of (α4E308V)3(β2)2 nAChR (P43681 29-627 E308V limits assumed): as the sequence (P43681 29-627 L310F limits assumed) above, with E280V, F282L counted along it
Sequence of (α4E308V)3(β2)2 nAChR (P17787 26-502 partner): as the sequence (P17787 26-502) above
T4 sequence (P43681 29-627 I275V limits assumed): as the sequence (P43681 29-627 L310F limits assumed) above, with I247V, F282L counted along it
T4 sequence (P17787 26-502): as the sequence (P17787 26-502) above
T7 sequence (P43681 29-627 L260M limits assumed): as the sequence (P43681 29-627 L310F limits assumed) above, with L232M, F282L counted along it
T7 sequence (P17787 26-502): as the sequence (P17787 26-502) above
Sequence of (α4L311V)3(β2)2 nAChR (P43681 29-627 L311V limits assumed): as the sequence (P43681 29-627 L310F limits assumed) above, with F282L, L283V counted along it
Sequence of (α4L311V)3(β2)2 nAChR (P17787 26-502 partner): as the sequence (P17787 26-502) above
Sequence of (α4C259V)3(β2)2 nAChR (P43681 29-627 C259V limits assumed): as the sequence (P43681 29-627 L310F limits assumed) above, with C231V, F282L counted along it
Sequence of (α4C259V)3(β2)2 nAChR (P17787 26-502 partner): as the sequence (P17787 26-502) above

## C=CC(C)(C)c1[nH]c2cc(Br)ccc2c1CCNC [dFBr]
[1]
  R, potentiation ratio (PR): 3.6 ± 0.4
[1]; [18]
  ACh Imax in the presence of 1 µM dFBr: 190 ± 08%
[1]; co-applied with 10 μM ACh
  dFBr potentiation h (Hill coefficient): 0.8 ± 0.1
[1]; normalized to 10 µM ACh alone
  dFBr potentiation Imax: 430 ± 31%
[1]; [19]
  EC50: 1500 ± 500 nM
[2]
  R, potentiation ratio (PR): 4.6 ± 0.9
[3]
  R, potentiation ratio (PR): 1.0 and 1.0 ± 0.1
[3]; [18]
  ACh Imax in the presence of 1 µM dFBr: 110 ± 06%
[3]; dFBr up to 10 µM, 10 μM ACh
  dFBr concentration-dependent potentiation of ACh-current responses: did not potentiate
[3]; [20]
  inhibition at 10 µM: ~45%
[4]
  R, potentiation ratio (PR): 3.1 ± 0.4
[4]; [18]
  ACh Imax in the presence of 1 µM dFBr: 159 ± 07%
[5]
  R, potentiation ratio (PR): 0.8 and 0.8 ± 0.1
[5]; [18]
  ACh Imax in the presence of 1 µM dFBr: 157 ± 19%
[5]; dFBr up to 10 µM, 10 μM ACh
  dFBr concentration-dependent potentiation of ACh-current responses: did not potentiate
[5]; [20]
  inhibition at 10 µM: ~65%
[6]
  R, potentiation ratio (PR): 5.5 ± 0.4
[7]
  R, potentiation ratio (PR): 4.0 ± 0.6
[8]
  R, potentiation ratio (PR): 1.2 and ~ 1.2 and 1.2 ± 0.2
[9]
  R, potentiation ratio (PR): 5.4 ± 0.4
[10]
  R, potentiation ratio (PR): 1.0 and ~ 1 and 1.0 ± 0.1
[10]; [18]
  ACh Imax in the presence of 1 µM dFBr: 142 ± 08%
[10]; dFBr up to 10 µM, 10 μM ACh
  dFBr concentration-dependent potentiation of ACh-current responses: did not potentiate
[10]; [20]
  inhibition at 10 µM: ~25%
[11]
  R, potentiation ratio (PR): 3.6 ± 0.4
[11]; [18]
  ACh Imax in the presence of 1 µM dFBr: 250 ± 36%
[12]
  R, potentiation ratio (PR): 3.5 ± 0.2
[12]; co-applied with 10 μM ACh
  dFBr potentiation h (Hill coefficient): 0.8 ± 0.2
[12]; normalized to 10 µM ACh alone
  dFBr potentiation Imax: 600 ± 136%
[12]; [19]
  EC50: 2900 ± 1900 nM
[13]
  R, potentiation ratio (PR): 5.6 ± 0.3
[14]
  R, potentiation ratio (PR): 5.8 ± 1.4
[15]
  R, potentiation ratio (PR): 4.5 ± 0.3
[16]
  R, potentiation ratio (PR): 5.3 ± 1.2
[17]
  R, potentiation ratio (PR): 2.8 ± 0.4

## Cc1nc(Nc2ccc(F)cc2)sc1C(=O)c1ccsc1 [LY2087101, [2-[(4-Fluorophenyl)amino]-4-methyl-5-thiazolyl]-3-thienylmethanone]
[1]
  R, potentiation ratio (PR): 8.4 ± 1.5
[1]; [18]
  ACh Imax in the presence of 1 µM LY2087101: 185 ± 04%
[1]; [21]
  EC50: 1700 ± 200 nM
[2]
  R, potentiation ratio (PR): 5.2 ± 0.6
[3]
  R, potentiation ratio (PR): 1.7 ± 0.2
[3]; normalized to 10 µM ACh alone, not from curve fitting, maximum seen at any concentration up to 10 µM LY2087101
  LY2087101 potentiation Imax%: 270 ± 30%
[4]
  R, potentiation ratio (PR): 2.3 ± 0.3
[4]; [18]
  ACh Imax in the presence of 1 µM LY2087101: 144 ± 13% and 144 ± 013%
[4]; [22]
  LY2087101 potentiation Imax%: 195 ± 13%
[4]; [21]
  EC50: 300 ± 200 nM
[5]
  R, potentiation ratio (PR): 1.09 ± 0.1
[5]; [18]
  ACh Imax in the presence of 1 µM LY2087101: 112 ± 9%
[6]
  R, potentiation ratio (PR): 4.2 ± 0.5
[6]; [22]
  LY2087101 potentiation Imax%: 573 ± 20%
[6]; [21]
  EC50: 1300 ± 100 nM
[7]
  R, potentiation ratio (PR): 3.7 ± 0.5
[7]; [21]
  EC50: 1700 ± 200 nM
[8]
  R, potentiation ratio (PR): 2.5 ± 0.2
[8]; [22]
  LY2087101 potentiation Imax%: 405 ± 5%
[8]; [21]
  EC50: 1200 ± 500 nM
[9]
  R, potentiation ratio (PR): 4.4 ± 0.6
[9]; [22]
  LY2087101 potentiation Imax%: 840 ± 31%
[9]; [21]
  EC50: 1200 ± 100 nM
[10]
  R, potentiation ratio (PR): 1.0 ± 0.1
[10]; [18]
  ACh Imax in the presence of 1 µM LY2087101: 104 ± 09%
[11]
  R, potentiation ratio (PR): 1.6 ± 0.2
[11]; [18]
  ACh Imax in the presence of 1 µM LY2087101: 264 ± 80%
[11]; [22]
  LY2087101 potentiation Imax%: 269 ± 21%
[11]; [21]
  EC50: 2500 ± 600 nM
[12]
  R, potentiation ratio (PR): 3.7 ± 0.6
[12]; [22]
  LY2087101 potentiation Imax%: 719 ± 20%
[12]; [21]
  EC50: 1600 ± 100 nM
[13]
  R, potentiation ratio (PR): 9.8 ± 1.0
[13]; [21]
  EC50: 3.1 ± 0.1 µM
[14]
  R, potentiation ratio (PR): 15.6 ± 3.2
[15]
  R, potentiation ratio (PR): 4.5 ± 0.2
[15]; [22]
  LY2087101 potentiation Imax%: 756 ± 27%
[15]; [21]
  EC50: 800 ± 100 nM
[16]
  R, potentiation ratio (PR): 3.8 ± 1.1
[16]; [22]
  LY2087101 potentiation Imax%: 856 ± 3%
[16]; [21]
  EC50: 2700 ± 20 nM
[17]
  R, potentiation ratio (PR): 3.8 ± 0.4
[17]; [22]
  LY2087101 potentiation Imax%: 537 ± 20%
[17]; [21]
  EC50: 700 ± 100 nM
